US10065963B2 (Incyte Corporation, priority 2015, dated 2018)
Structures can show the parent of a compound that is named as a salt. Where two headings read alike, the source gives them in different places.

Legend:
[1] = target: human JAK2 (a.a. 828-1132) (Homo sapiens (Human), UniProt O60674); assay: In vitro JAK kinase assay (JAK2); type: biochemical; details: IC50 ratio, 1 mM ATP
[2] = target: human JAK1 (a.a. 837-1142) (Homo sapiens, UniProt P23458); assay: In vitro JAK kinase assay (JAK1); type: biochemical; details: 1 mM ATP
[3] = system: Phosphorylated Ribosomal Protein S6 (RPS6) in THP-1 cells; assay: THP-1 RPS6 ELISA assay; type: cell-based, human; details: 10 nM MCP-1, read-out: PI3Kγ_THP1_RPS6_ELISA IC50
[4] = target: PI3Kγ (p110γ) Recombinant Human Protein (Homo sapiens (Human), UniProt P48736); assay: PI3K-γ scintillation proximity assay; type: biochemical; details: 2 μM ATP, 20 μM PIP2
PI3Kγ (p110γ) Recombinant Human Protein, sequence (P48736 whole entry): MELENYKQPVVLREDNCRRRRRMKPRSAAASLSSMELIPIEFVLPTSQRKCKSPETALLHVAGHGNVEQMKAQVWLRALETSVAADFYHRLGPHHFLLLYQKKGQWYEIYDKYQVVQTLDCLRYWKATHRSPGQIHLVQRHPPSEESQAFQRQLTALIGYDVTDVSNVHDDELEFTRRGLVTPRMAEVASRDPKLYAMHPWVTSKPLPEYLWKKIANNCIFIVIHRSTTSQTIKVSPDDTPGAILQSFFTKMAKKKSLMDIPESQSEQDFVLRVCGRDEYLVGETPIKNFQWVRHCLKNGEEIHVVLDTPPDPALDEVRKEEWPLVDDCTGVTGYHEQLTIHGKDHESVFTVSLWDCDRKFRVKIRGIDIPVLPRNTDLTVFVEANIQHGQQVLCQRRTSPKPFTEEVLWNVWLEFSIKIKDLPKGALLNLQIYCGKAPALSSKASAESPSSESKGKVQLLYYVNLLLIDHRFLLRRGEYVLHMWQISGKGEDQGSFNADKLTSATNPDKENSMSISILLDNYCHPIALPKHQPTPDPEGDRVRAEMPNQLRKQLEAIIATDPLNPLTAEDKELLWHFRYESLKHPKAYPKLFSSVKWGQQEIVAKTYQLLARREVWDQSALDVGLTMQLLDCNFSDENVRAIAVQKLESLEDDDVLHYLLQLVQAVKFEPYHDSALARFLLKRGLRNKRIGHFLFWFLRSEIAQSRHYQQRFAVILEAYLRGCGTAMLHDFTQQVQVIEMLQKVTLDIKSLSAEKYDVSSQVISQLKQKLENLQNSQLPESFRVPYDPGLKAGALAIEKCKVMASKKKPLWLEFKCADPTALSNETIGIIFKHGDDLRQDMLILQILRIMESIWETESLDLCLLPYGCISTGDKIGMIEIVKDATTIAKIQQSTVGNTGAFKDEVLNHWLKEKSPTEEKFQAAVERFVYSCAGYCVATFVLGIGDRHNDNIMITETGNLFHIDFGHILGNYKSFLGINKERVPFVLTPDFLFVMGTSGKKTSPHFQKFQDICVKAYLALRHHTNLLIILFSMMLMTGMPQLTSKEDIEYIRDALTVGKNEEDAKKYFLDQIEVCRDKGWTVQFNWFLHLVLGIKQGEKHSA

[5] = target: PI3Kδ (p110δ/p85α) Recombinant Human Protein (Homo sapiens (Human), UniProt O00329); assay: PI3Kδ scintillation proximity assay; type: biochemical; details: 2 μM ATP, 20 μM PIP2
PI3Kδ (p110δ/p85α) Recombinant Human Protein, sequence (O00329 whole entry): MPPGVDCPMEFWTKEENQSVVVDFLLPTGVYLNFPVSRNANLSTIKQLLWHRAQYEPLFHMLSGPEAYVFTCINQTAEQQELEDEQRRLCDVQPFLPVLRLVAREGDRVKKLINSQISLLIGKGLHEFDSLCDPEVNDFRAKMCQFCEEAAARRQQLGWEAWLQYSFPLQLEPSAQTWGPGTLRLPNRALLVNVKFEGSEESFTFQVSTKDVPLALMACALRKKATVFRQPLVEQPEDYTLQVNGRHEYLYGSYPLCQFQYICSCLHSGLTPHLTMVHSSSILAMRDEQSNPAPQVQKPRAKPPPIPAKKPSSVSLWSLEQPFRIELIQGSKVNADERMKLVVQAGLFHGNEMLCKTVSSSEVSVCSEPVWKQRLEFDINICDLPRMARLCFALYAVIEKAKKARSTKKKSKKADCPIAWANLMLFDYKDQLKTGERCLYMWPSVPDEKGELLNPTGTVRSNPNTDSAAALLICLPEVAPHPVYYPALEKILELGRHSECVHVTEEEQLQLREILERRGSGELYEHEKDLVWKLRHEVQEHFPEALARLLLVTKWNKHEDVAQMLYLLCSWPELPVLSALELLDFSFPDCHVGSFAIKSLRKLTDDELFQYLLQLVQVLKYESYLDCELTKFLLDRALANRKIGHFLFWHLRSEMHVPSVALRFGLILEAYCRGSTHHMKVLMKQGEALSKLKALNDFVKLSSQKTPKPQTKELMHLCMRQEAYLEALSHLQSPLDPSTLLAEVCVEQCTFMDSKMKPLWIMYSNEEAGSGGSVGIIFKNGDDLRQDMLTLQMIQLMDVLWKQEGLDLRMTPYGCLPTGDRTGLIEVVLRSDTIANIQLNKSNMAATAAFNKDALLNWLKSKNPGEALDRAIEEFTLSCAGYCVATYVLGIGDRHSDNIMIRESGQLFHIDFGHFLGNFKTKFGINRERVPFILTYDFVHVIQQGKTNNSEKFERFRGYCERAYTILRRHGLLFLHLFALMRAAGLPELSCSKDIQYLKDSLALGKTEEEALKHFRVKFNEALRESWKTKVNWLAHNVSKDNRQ
PI3Kδ (p110δ/p85α) Recombinant Human Protein, sequence (P27986 whole entry partner): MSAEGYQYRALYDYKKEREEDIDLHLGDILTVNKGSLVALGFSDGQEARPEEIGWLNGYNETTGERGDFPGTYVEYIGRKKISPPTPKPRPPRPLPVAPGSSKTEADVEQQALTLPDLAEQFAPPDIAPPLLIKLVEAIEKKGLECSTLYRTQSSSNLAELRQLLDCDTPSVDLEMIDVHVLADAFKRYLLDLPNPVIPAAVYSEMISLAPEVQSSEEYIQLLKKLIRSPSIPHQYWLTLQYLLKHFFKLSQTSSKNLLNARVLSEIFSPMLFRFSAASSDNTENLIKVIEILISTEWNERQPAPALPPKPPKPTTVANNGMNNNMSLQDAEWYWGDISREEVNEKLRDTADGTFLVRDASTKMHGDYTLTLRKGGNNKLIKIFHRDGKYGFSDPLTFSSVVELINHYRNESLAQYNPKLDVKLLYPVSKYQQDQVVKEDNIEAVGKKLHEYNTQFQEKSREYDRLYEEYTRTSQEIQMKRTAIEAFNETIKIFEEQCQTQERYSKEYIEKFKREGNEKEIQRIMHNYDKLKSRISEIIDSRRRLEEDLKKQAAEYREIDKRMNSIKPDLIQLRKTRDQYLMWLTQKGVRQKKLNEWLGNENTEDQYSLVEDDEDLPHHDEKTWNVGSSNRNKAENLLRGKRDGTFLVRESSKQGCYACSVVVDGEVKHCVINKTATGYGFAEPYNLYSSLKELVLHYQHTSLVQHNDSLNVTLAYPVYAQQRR

[6] = Homo sapiens, THP-1, THP-1 cells

human JAK2 (a.a. 828-1132), sequence (O60674 828-1132): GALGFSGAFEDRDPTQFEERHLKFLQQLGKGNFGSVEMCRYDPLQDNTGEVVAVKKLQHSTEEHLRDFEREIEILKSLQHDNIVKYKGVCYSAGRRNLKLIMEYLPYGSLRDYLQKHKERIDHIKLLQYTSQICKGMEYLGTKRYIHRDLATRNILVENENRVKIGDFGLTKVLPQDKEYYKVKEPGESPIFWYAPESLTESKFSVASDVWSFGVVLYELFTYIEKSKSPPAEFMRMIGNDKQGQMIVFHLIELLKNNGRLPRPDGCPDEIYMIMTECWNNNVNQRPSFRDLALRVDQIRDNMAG

Row | SMILES | JAK2/JAK1 [1] | IC50 [2] | IC50 [3, 6] | IC50 [4] | IC50 [5] | IC50 ([3]; THP-1 cells)
1 | N#CCC(C1CCN(c2cccc(Cl)n2)C1)n1cc(-c2ncnc3[nH]ccc23)cn1 (single isomer, unassigned) [Example 3, 3-[1-(6-chloropyridin-2-yl)pyrrolidin-3-yl]-3-[4-(7H-pyrrolo[2,3-d]pyrimidin-4-yl)-1H-pyrazol-1-yl]propanenitrile] | >10 | < 0.01 µM |  |  |  | 
2 | Cc1ncc2c(Cl)cc(C(C)NC(=O)c3c(N)nn4cccnc34)c(-c3cccnc3)n12 (racemic) [Example 120, 2-Amino-N-[1-(8-chloro-3-methyl-5-pyridin-3-ylimidazo[1,5-a]pyridin-6-yl)ethyl]pyrazolo[1,5-a]pyrimidine-3-carboxamide trifluoroacetate salt] |  |  | < 0.5 µM | < 0.1 µM | < 0.1 µM | 
3 | CC(NC(=O)c1c(N)nn2cccnc12)c1cc(Cl)c2cncn2c1N1CCCC(F)C1 (single isomer, unassigned) [Example 73A, 2-Amino-N-{1-[8-chloro-5-(3-fluoropiperidin-1-yl)imidazo[1,5-a]pyridin-6-yl]ethyl}pyrazolo[1,5-a]pyrimidine-3-carboxamide] |  |  | < 0.5 µM | < 0.1 µM | < 0.1 µM | 
4 | CC(NC(=O)c1c(N)nn2cccnc12)c1cc(Cl)c2cncn2c1N1CCCC(C)(C#N)C1 (single isomer, unassigned) [Example 77A, 2-Amino-N-{1-[8-chloro-5-(3-cyano-3-methylpiperidin-1-yl)imidazo[1,5-a]pyridin-6-yl]ethyl}pyrazolo[1,5-a]pyrimidine-3-carboxamide trifluroacetate] |  |  | < 0.5 µM | < 0.1 µM | < 0.5 µM | 
5 | CC(NC(=O)c1c(N)nn2cccnc12)c1cc(Cl)c2cncn2c1-c1cc[nH]n1 (racemic) [Example 130, 2-Amino-N-{1-[8-chloro-5-(1H-pyrazol-3-yl)imidazo[1,5-a]pyridin-6-yl]ethyl}pyrazolo[1,5-a]pyrimidine-3-carboxamide trifluoroacetate salt] |  |  | < 0.5 µM | < 0.1 µM | < 0.5 µM | 
6 | CCOc1c(C(C)NC(=O)c2c(N)nn3cccnc23)cc(Cl)c2c(Br)nn(CCO)c12 (centres unmarked) [Example 54, 2-Amino-N-(1-(3-bromo-4-chloro-7-ethoxy-1-(2-hydroxyethyl)-1H-indazol-6-yl)ethyl)pyrazol[1,5-a]pyrimidine-3-carboxamide trifluoroacetate] |  |  |  | < 0.1 µM | < 0.1 µM | > 1 µM
7 | CC(NC(=O)c1c(N)nn2cccnc12)c1cc(Cl)c2cncn2c1N1CCC(C#N)C1 (racemic) [Example 32, 2-Amino-N-(1-(8-chloro-5-(3-cyanopyrrolidin-1-yl)imidazo[1,5-a]pyridin-6-yl)ethyl)pyrazolo[1,5-a]pyrimidine-3-carboxamide trifluoroacetate salt] |  |  | < 0.5 µM | < 0.1 µM | < 0.1 µM | 
8 | CCOc1c(C(C)NC(=O)c2c(N)nc3ccc(-c4cncc(CO)c4)nn23)cc(Cl)c2c(Cl)n[nH]c12 (centres unmarked) [Example 49, 2-Amino-N-(1-(3,4-dichloro-7-ethoxy-1H-indazol-6-yl)ethyl)-6-(5-(hydroxymethyl)pyridin-3-yl)imidazo[1,2-b]pyridazine-3-carboxamide] |  |  | < 0.5 µM | < 0.1 µM | < 0.1 µM | 
9 | CC(NC(=O)c1c(N)nn2cccnc12)c1cc(Cl)c2cncn2c1N1CCCC[C@@H]1C (stereo partly drawn) [Example 72B, 2-Amino-N-{1-[8-chloro-5-[(2S)-2-methylpiperidin-1-yl)imidazo[1,5-a]pyridin-6-yl]ethyl}pyrazolo[1,5-a]pyrimidine-3-carboxamide bistrifluoroacetate] |  |  | < 0.5 µM | < 0.1 µM | < 0.1 µM | 
10 | CC(NC(=O)c1c(N)nn2cccnc12)c1cc(Cl)c2cncn2c1N1CCOCC1 (racemic) [Example 145, 2-Amino-N-[1-(8-chloro-5-morpholin-4-ylimidazo[1,5-a]pyridin-6-yl)ethyl]pyrazolo[1,5-a]pyrimidine-3-carboxamide trifluoroacetate salt] |  |  | > 1 µM | < 0.1 µM | < 0.1 µM | 
11 | CCOc1c(C(C)NC(=O)c2c(N)nn3cccnc23)cc(Cl)c2c(Br)n[nH]c12 (centres unmarked) [Example 52, 2-Amino-N-(1-(3-bromo-4-chloro-7-ethoxy-1H-indazol-6-yl)ethyl)pyrazolo[1,5-a]pyrimidine-3-carboxamide trifluoroacetate] |  |  | < 0.5 µM | < 0.1 µM | < 0.5 µM | 
12 | CNS(=O)(=O)C1CCN(c2c(C(C)NC(=O)c3c(N)nn4cccnc34)cc(Cl)c3cn[nH]c23)C1 (centres unmarked) [Example 92, 2-Amino-N-[1-(4-chloro-7-{3-[(methylamino)sulfonyl)pyrrolidin-1-yl}-2H-indazol-6-yl)ethyl]pyrazolo[1,5-a]pyrimidine-3-carboxamide] |  |  | < 0.5 µM | < 0.1 µM | < 0.5 µM | 
13 | CC(NC(=O)c1c(N)nn2cccnc12)c1cc(Cl)c2cncn2c1N1CCC(C#N)CC1 (centres unmarked) [Example 153, 2-Amino-N-{1-[8-chloro-5-(4-cyanopiperidin-1-yl)imidazo[1.5-a]pyridin-6-yl]ethyl}pyrazolo[1,5-a]pyrimidine-3-carboxamide trifluoroacetate salt] |  |  |  | < 0.1 µM | < 0.1 µM | < 0.5 µM
14 | C[C@H](NC(=O)c1c(N)nn2cccnc12)c1cc(Cl)c2c(F)cnn2c1N1CCS(=O)(=O)CC1 [Example 58, (S)-2-Amino-N-(1-(4-chloro-7-(1,1-dioxidothiomorpholino)-3-fluoropyrazolo[1,5-a]pyridin-6-yl)ethyl)pyrazolo[1,5-a]pyrimidine-3-carboxamide trifluoroacetate] |  |  | < 0.5 µM | < 0.1 µM | < 0.1 µM | 
